`CC(C)CN(C)Cc1cnnn1-c1cccc(C2=Nc3cc(N(C)C(C)C)c(Cl)cc3NC(=O)C2)c1` [Example 149, 8-Chloro-4-(3-{5-[(isobutyl-methyl-amino)-methyl]-[1,2,3]triazol-1-yl}-phenyl)-7-(isopropyl-methyl-amino)-1,3-dihydro-benzo[b][1,4]diazepin-2-one] and `CC(C)CNCc1cnnn1-c1cccc(C2=Nc3cc(N(C)C(C)C)c(Cl)cc3NC(=O)C2)c1` [Example 156, 8-Chloro-4-{3-[5-(isobutylamino-methyl)-[1,2,3]triazol-1-yl]-phenyl}-7-(isopropyl-methyl-amino)-1,3-dihydro-benzo[b][1,4]-diazepin-2-one] are the same in melting point: 182 °C for the first, 182 °C for the second.

Compared with `CC(C)N(C)c1cc2c(cc1C(F)(F)F)NC(=O)CC(c1cccc(-n3nncc3CN(C)C)c1)=N2` [Example 150, 4-[3-(5-Dimethylaminomethyl-[1,2,3]triazol-1-yl)-phenyl]-7-(isopropyl-methyl-amino)-8-trifluoromethyl-1,3-dihydro-benzo[b][1,4]diazepin-2-one], `CC(C)NCc1cnnn1-c1cccc(C2=Nc3cc(N(C)C(C)C)c(C(F)(F)F)cc3NC(=O)C2)c1` [Example 155, 4-{3-[5-(Isopropylamino-methyl)-[1,2,3]triazol-1-yl]-phenyl}-7-(isopropyl-methyl-amino)-8-trifluoromethyl-1,3-dihydro-benzo[b][1,4]diazepin-2-one] is lower in melting point: 197 °C for the first, 191 °C for the second.

First: CC(C)N(C)c1cc2c(cc1C(F)(F)F)NC(=O)CC(c1cccc(-n3nncc3CN3CCCC3)c1)=N2 [Example 151, 7-(Isopropyl-methyl-amino)-4-[3-(5-pyrrolidin-1-ylmethyl-[1,2,3]triazol-1-yl)-phenyl]-8-trifluoromethyl-1,3-dihydro-benzo[b][1,4]diazepin-2-one]
Second: CC(C)N(C)c1cc2c(cc1C(F)(F)F)NC(=O)CC(c1cccc(-n3nncc3CNC3CC3)c1)=N2 [Example 157, 4-[3-(5-Cyclopropylaminomethyl-[1,2,3]triazol-1-yl)-phenyl]-7-(isopropyl-methyl-amino)-8-trifluoromethyl-1,3-dihydro-benzo[b][1,4]diazepin-2-one]
The melting point of the first is lower: 175 °C for the first, 178 °C for the second.

Going from `CC(C)N(C)c1cc2c(cc1C(F)(F)F)NC(=O)CC(c1cccc(-n3nncc3CNCC3CC3)c1)=N2` [Example 153, 4-(3-{5-[(Cyclopropylmethyl-amino)-methyl]-[1,2,3]triazol-1-yl}-phenyl)-7-(isopropyl-methyl-amino)-8-trifluoromethyl-1,3-dihydro-benzo[b][1,4]diazepin-2-one] to `CC(C)N(C)c1cc2c(cc1Cl)NC(=O)CC(c1cccc(-n3nncc3CNC3CC3)c1)=N2` [Example 154, 8-Chloro-4-[3-(5-cyclopropylaminomethyl-[1,2,3]triazol-1-yl)-phenyl]-7-(isopropyl-methyl-amino)-1,3-dihydro-benzo[b][1,4]diazepin-2-one], the melting point falls from 152 °C to 144 °C.

`Cc1cc2c(cc1N(C)CC(C)C)N=C(c1cccc(-n3ncnc3CN3CCCC3)c1)CC(=O)N2` [Example 158, 7-(Isobutyl-methyl-amino)-8-methyl-4-[3-(5-pyrrolidin-1-ylmethyl-[1,2,4]triazol-1-yl)-phenyl]-1,3-dihydro-benzo[b][1,4]diazepin-2-one] and `CC(C)CN(C)c1cc2c(cc1Cl)NC(=O)CC(c1cccc(-n3ncnc3CN3CCCC3)c1)=N2` [Example 165, 8-Chloro-7-(isobutyl-methyl-amino)-4-[3-(5-pyrrolidin-1-ylmethyl-[1,2,4]triazol-1-yl)-phenyl]-1,3-dihydro-benzo[b][1,4]diazepin-2-one] are the same in melting point: 164 °C for the first, 164 °C for the second.

Going from `Cc1cc2c(cc1N(C)CC(C)C)N=C(c1cccc(-n3ncnc3CNC3CC3)c1)CC(=O)N2` [Example 159, 4-[3-(5-Cyclopropylaminomethyl-[1,2,4]triazol-1-yl)-phenyl]-7-(isobutyl-methyl-amino)-8-methyl-1,3-dihydro-benzo[b][1,4]diazepin-2-one] to `Cc1cc2c(cc1N(C)CC(C)C)N=C(c1cccc(-n3ncnc3CO)c1)CC(=O)N2` [Example 168, 4-[3-(5-Hydroxymethyl-[1,2,4]triazol-1-yl)-phenyl]-7-(isobutyl-methyl-amino)-8-methyl-1,3-dihydro-benzo[b][1,4]diazepin-2-one], the melting point rises from 114 °C to 191 °C.

First: Cc1cc(-c2cccc(C3=Nc4cc(NC(C)C)c(Cl)cc4NC(=O)C3)c2)on1 [Example 160, 8-Chloro-7-isopropylamino-4-[3-(3-methyl-isoxazol-5-yl)-phenyl]-1,3-dihydro-benzo[b][1,4]diazepin-2-one]
Second: CC(C)Nc1cc2c(cc1Cl)NC(=O)CC(c1cccc(-n3nncc3CO)c1)=N2 [Example 161, 8-Chloro-4-[3-(5-hydroxymethyl-[1,2,3]triazol-1-yl)-phenyl]-7-isopropylamino-1,3-dihydro-benzo[b][1,4]diazepin-2-one]
The melting point of the first is lower: 225 °C for the first, 250 °C for the second.

First: CCCN(C)c1cc2c(cc1Cl)NC(=O)CC(c1cccc(-n3ncnc3CO)c1)=N2 [Example 162, 8-Chloro-7-(methyl-propyl-amino)-4-[3-(5-hydroxymethyl-[1,2,4]triazol-1-yl)-phenyl]-1,3-dihydro-benzo[b][1,4]diazepin-2-one]
Second: CCCN(C)c1cc2c(cc1Cl)NC(=O)CC(c1cccc(-n3ncnc3CN(C)C)c1)=N2 [Example 166, 8-Chloro-4-[3-(5-dimethylaminomethyl-[1,2,4]triazol-1-yl)-phenyl]-7-(methyl-propyl-amino)-1,3-dihydro-benzo[b][1,4]diazepin-2-one]
The melting point of the first is higher: 192 °C for the first, 170 °C for the second.

Compared with `CCCN(C)c1cc2c(cc1Cl)NC(=O)CC(c1cccc(-n3ncnc3CN3CCCC3)c1)=N2` [Example 164, 8-Chloro-7-(methyl-propyl-amino)-4-[3-(5-pyrrolidin-1-ylmethyl-[1,2,4]triazol-1-yl)-phenyl]-1,3-dihydro-benzo[b][1,4]diazepin-2-one], `CCCN(C)c1cc2c(cc1Cl)NC(=O)CC(c1cccc(-n3ncnc3CNC3CC3)c1)=N2` [Example 167, 8-Chloro-4-[3-(5-cyclopropylaminomethyl-[1,2,4]triazol-1-yl)-phenyl]-7-(methyl-propyl-amino)-1,3-dihydro-benzo[b][1,4]diazepin-2-one] is lower in melting point: 183 °C for the first, 123 °C for the second.

Compared with `CCCN(C)c1cc2c(cc1C(F)(F)F)NC(=O)CC(c1cccc(-n3ccnn3)c1)=N2` [Example 170, 7-(Methyl-propyl-amino)-4-(3-[1,2,3]triazol-1-yl-phenyl)-8-trifluoromethyl-1,3-dihydro-benzo[b][1,4]diazepin-2-one], `CC(C)CN(C)c1cc2c(cc1C(F)(F)F)NC(=O)CC(c1cccc(-n3ccnn3)c1)=N2` [Example 176, 7-(Isobutyl-methyl-amino)-4-(3-[1,2,3]triazol-1-yl-phenyl)-8-trifluoromethyl-1,3-dihydro-benzo[b][1,4]diazepin-2-one] is higher in melting point: 147 °C for the first, 202 °C for the second.

First: CC(C)CN(C)c1cc2c(cc1C(F)(F)F)NC(=O)CC(c1cccc(-n3cccn3)c1)=N2 [Example 171, 7-(Isobutyl-methyl-amino)-4-(3-pyrazol-1-yl-phenyl)-8-trifluoromethyl-1,3-dihydro-benzo[b][1,4]diazepin-2-one]
Second: CC(C)CN(C)c1cc2c(cc1Cl)NC(=O)CC(c1cccc(-n3ccnn3)c1)=N2 [Example 175, 8-Chloro-7-(isobutyl-methyl-amino)-4-(3-[1,2,3]triazol-1-yl-phenyl)-1,3-dihydro-benzo[b][1,4]diazepin-2-one]
The melting point of the first is higher: 182 °C for the first, 85 °C for the second.

Compared with `CC(C)N(C)c1cc2c(cc1C(F)(F)F)NC(=O)CC(c1ccnc(C#N)c1)=N2` [Example 172, 4-[8-(Isopropyl-methyl-amino)-4-oxo-7-trifluoromethyl-4,5-dihydro-3H-benzo[b][1,4]diazepin-2-yl]-pyridine-2-carbonitrile], `CC(C)CNc1cc2c(cc1C(F)(F)F)NC(=O)CC(c1cccc(-n3ccnc3)c1)=N2` [Example 177, 4-(3-Imidazol-1-yl-phenyl)-7-isobutylamino-8-trifluoromethyl-1,3-dihydro-benzo[b][1,4]diazepin-2-one] is higher in melting point: 189 °C for the first, 221 °C for the second.

First: CC(C)CN(C)c1cc2c(cc1Cl)NC(=O)CC(c1cccc(-n3cncn3)c1)=N2 [Example 173, 8-Chloro-7-(isobutyl-methyl-amino)-4-(3-[1,2,4]triazol-1-yl-phenyl)-1,3-dihydro-benzo[b][1,4]diazepin-2-one]
Second: CC(C)CNc1cc2c(cc1Cl)NC(=O)CC(c1cccc(-n3cncn3)c1)=N2 [Example 181, 8-Chloro-7-(isobutyl-amino)-4-(3-[1,2,4]triazol-1-yl-phenyl)-1,3-dihydro-benzo[b][1,4]diazepin-2-one]
The melting point of the first is lower: 213 °C for the first, 222 °C for the second.

Going from `CC(C)CNc1cc2c(cc1Cl)NC(=O)CC(c1cccc(-n3ccnc3)c1)=N2` [Example 178, 8-Chloro-4-(3-imidazol-1-yl-phenyl)-7-isobutylamino-1,3-dihydro-benzo[b][1,4]diazepin-2-one] to `CC(C)CNc1cc2c(cc1Cl)NC(=O)CC(c1cccc(-n3ccnn3)c1)=N2` [Example 179, 8-Chloro-7-(isobutyl-amino)-4-(3-[1,2,3]triazol-1-yl-phenyl)-1,3-dihydro-benzo[b][1,4]diazepin-2-one], the melting point rises from 212 °C to 249 °C.

Going from `CC(C)CNc1cc2c(cc1C(F)(F)F)NC(=O)CC(c1cccc(-n3ccnn3)c1)=N2` [Example 180, 7-(Isobutyl-amino)-4-(3-[1,2,3]triazol-1-yl-phenyl)-8-trifluoromethyl-1,3-dihydro-benzo[b][1,4]diazepin-2-one] to `CC(C)CNc1cc2c(cc1C(F)(F)F)NC(=O)CC(c1cccc(-n3cncn3)c1)=N2` [Example 182, 7-(Isobutyl-amino)-4-(3-[1,2,4]triazol-1-yl-phenyl)-8-trifluoromethyl-1,3-dihydro-benzo[b][1,4]diazepin-2-one], the melting point falls from 212 °C to 191 °C.

With `CCN(C)c1cc2c(cc1Cl)NC(=O)CC(c1cccc(-c3nc(CO)cs3)c1)=N2` [Example 183, 8-Chloro-7-(ethyl-methyl-amino)-4-[3-(4-hydroxymethyl-thiazol-2-yl)-phenyl]-1,3-dihydro-benzo[b][1,4]diazepin-2-one] the melting point was 136 to 137 °C.

Reference: patent US6544985B2, “Dihydro-benzo [b][1,4]diazepin-2-one derivatives” (Hoffman-La Roche Inc., priority 2001, dated 2003)
